Test results from patent US9587005B2 (priority 2010, dated 2017).
Where two headings read alike, the source gives them in different places. *1 amine or outer side, *2 acyl side, *3 side chain or, on linkers, in order; H or OH if unused. Where a SMILES comes first, the peptide text is derived from it. Where no end group is shown, it is not given here. Side-chain parts run from the residue outwards. [ ]: non-standard residue; d: D form. The star is where a group is joined. Phe(4-NH2) = Nc1ccc(C[C@H](N)C(=O)O)cc1; γGlu = O=C(O)[C@H](CCC(=O)[*:2])N[*:1]; X6 = CCCCCCCCCCCCCCCCC(CC(=O)*)C(=O)O; Palmitoyl = CCCCCCCCCCCCCCCC(=O)*; PEG4 = NCCOCCOCCOCCOCCC(=O)O; Aib = CC(C)(N)C(=O)O

Experiments:
Type in all cases: cell-based
glucagon receptor = target: T1, glucagon receptor (Homo sapiens, UniProt P47871); assay: cAMP induction, firefly luciferase reporter assay in HEK293 cells co-transfected with glucagon receptor; conditions: for GR relative activity: Table 3, relative to the activity of the native hormone
T1 construct: expressed in transfected cells; host or cells: HEK293
Text: (§1) This example describes an exemplary method of testing the biological activity of the peptides of the present disclosures, which method involves assaying cAMP synthesis.

GLP-1 receptor = target: T2, GLP-1 receptor (Homo sapiens, UniProt P43220); assay: cAMP induction, firefly luciferase reporter assay in HEK293 cells co-transfected with GLP-1 receptor; conditions: for GLP-1R relative activity: Table 3, relative to the activity of the native hormone
T2 construct: expressed in transfected cells; host or cells: HEK293
Text: as §1

GIP receptor = target: T3, GIP receptor (Homo sapiens, UniProt P48546); assay: cAMP induction, firefly luciferase reporter assay in HEK293 cells co-transfected with GIP receptor; conditions: for GIPR relative activity: Table 3, relative to the activity of the native hormone
T3 sequence (P48546 22-466): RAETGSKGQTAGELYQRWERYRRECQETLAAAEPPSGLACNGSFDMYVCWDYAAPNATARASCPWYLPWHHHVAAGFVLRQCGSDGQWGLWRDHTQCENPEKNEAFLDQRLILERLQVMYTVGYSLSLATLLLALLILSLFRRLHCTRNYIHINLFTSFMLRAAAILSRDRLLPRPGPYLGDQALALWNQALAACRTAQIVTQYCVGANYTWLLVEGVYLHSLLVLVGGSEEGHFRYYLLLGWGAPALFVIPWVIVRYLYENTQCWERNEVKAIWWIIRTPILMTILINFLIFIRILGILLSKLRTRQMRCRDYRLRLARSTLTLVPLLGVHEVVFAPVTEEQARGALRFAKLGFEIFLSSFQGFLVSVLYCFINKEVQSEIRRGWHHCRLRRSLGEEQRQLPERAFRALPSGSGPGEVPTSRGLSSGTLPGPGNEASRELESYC

[1] = GLP-1 Receptor EC50, Table 11, Example 18
[2] = GIP Receptor EC50, Table 11, Example 18
[3] = Table 3, Example 8, read-out: GLP-1R EC50
[4] = Table 3, Example 8, read-out: GIPR EC50

T2 sequence (P43220 24-463): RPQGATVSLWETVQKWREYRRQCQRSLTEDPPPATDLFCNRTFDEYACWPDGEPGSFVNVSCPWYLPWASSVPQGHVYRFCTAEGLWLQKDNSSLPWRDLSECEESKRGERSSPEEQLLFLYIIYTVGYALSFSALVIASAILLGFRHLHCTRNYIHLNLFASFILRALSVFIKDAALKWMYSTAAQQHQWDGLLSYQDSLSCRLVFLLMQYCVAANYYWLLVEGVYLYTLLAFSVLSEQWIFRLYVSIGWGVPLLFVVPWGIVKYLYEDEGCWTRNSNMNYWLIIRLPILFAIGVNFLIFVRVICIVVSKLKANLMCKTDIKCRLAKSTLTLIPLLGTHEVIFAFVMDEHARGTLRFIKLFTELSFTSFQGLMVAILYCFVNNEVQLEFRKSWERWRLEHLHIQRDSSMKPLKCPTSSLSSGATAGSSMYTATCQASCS
T1 sequence (P47871 26-477): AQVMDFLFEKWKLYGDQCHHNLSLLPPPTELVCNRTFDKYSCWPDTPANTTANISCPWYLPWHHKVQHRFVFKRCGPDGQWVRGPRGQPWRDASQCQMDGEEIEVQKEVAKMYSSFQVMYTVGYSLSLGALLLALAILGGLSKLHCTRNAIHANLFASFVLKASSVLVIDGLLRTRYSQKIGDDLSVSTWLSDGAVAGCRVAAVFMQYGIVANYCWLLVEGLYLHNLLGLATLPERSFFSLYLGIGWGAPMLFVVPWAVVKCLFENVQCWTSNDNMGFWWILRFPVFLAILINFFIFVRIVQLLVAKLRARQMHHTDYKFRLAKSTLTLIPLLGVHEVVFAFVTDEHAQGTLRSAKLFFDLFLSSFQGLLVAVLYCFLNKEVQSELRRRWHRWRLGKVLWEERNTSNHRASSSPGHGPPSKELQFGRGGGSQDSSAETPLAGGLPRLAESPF

Molecule	EC50 (GLP-1 receptor; [1]) [nM]	EC50 (GIP receptor; [2]) [nM]	GR relative activity (glucagon receptor) [%]	EC50 (GLP-1 receptor; [3]) [nM]	GLP-1R relative activity (GLP-1 receptor) [%]	EC50 (GIP receptor; [4]) [nM]	GIPR relative activity (GIP receptor) [%]	also measured
CCCCCCCCCCCCCCCC(=O)N[C@@H](CCC(=O)Nc1ccc(C[C@H](NC(=O)[C@@H](NC(=O)CNC(=O)[C@H](CCC(N)=O)NC(=O)C(C)(C)NC(=O)[C@@H](N)Cc2c[nH]cn2)[C@@H](C)O)C(=O)N[C@H](C(=O)N[C@@H](CO)C(=O)N[C@@H](CC(=O)O)C(=O)N[C@@H](Cc2ccc(O)cc2)C(=O)N[C@@H](CO)C(=O)N[C@@H](CCCCN)C(=O)N[C@@H](Cc2ccc(O)cc2)C(=O)N[C@@H](CC(C)C)C(=O)N[C@@H](CC(=O)O)C(=O)N[C@@H](CCC(=O)O)C(=O)N[C@@H](CCCNC(=N)N)C(=O)N[C@@H](C)C(=O)N[C@@H](C)C(=O)N[C@@H](CCC(N)=O)C(=O)N[C@@H](CC(=O)O)C(=O)N[C@@H](Cc2ccccc2)C(=O)N[C@H](C(=O)N[C@@H](CCC(N)=O)C(=O)N[C@@H](Cc2c[nH]c3ccccc23)C(=O)N[C@@H](CC(C)C)C(=O)N[C@@H](CC(C)C)C(=O)N[C@@H](CC(=O)O)C(=O)NCC(=O)NCC(=O)N2CCC[C@H]2C(=O)N[C@@H](CO)C(=O)N[C@@H](CO)C(=O)NCC(=O)N[C@@H](C)C(=O)N2CCC[C@H]2C(=O)N2CCC[C@H]2C(=O)N2CCC[C@H]2C(=O)N[C@@H](CO)C(N)=O)C(C)C)[C@@H](C)O)cc1)C(=O)O [SEQ ID NO: 147] (H-H[Aib]QGT[Phe(4-NH2)]([γGlu-Palmitoyl])TSDYSKYLDERAAQDFVQWLLDGGPSSGAPPPS-NH2; N-terminus assumed)								EC50 (glucagon receptor; Glucagon Receptor EC50, Table 10, Example 16): 0.246 nM; EC50 (GLP-1 receptor; GLP-1 Receptor EC50, Table 10, Example 16): 0.004 nM; EC50 (GIP receptor; Table 10, Example 16, read-out: GIP-1 Receptor EC50): 3.13 nM
H[Aib]QGTFTSDYSKYLDERAAQDFVQWLLDGGPSSGAPPPSK(X6)G-NH2 [SEQ ID NO: 156]	0.003	0.006						EC50 (glucagon receptor): 0.003 nM
Example 8 peptide: Tyr1, AIB2, Glu16/Lys20 lactam, Leu-Ala-Gly 27-29, GPSSGAPPPS 30-39, or a peptide lacking a lactam [mt-220]			1.18	0.18	13.89	10.3	0.19	
Example 8 peptide: Tyr1, AIB2, Glu16/Lys20 lactam, Leu-Ala-Gly 27-29, GPSSGAPPPS 30-39, or a peptide lacking a lactam [mt-217]			0.82	0.222	11.26	9.57	0.20	
CCCCCCCCCCCCCCCC(=O)N[C@@H](CCC(=O)N[C@@H](CCC(=O)NCCCC[C@H](NC(=O)[C@H](CC(=O)O)NC(=O)[C@H](CO)NC(=O)[C@@H](NC(=O)[C@H](Cc1ccccc1)NC(=O)[C@@H](NC(=O)CNC(=O)[C@H](CCC(N)=O)NC(=O)C(C)(C)NC(=O)[C@@H](N)Cc1ccc(O)cc1)[C@@H](C)O)[C@@H](C)O)C(=O)N[C@@H](CO)C(=O)N[C@H](C(=O)N[C@@H](Cc1ccc(O)cc1)C(=O)N[C@@H](CC(C)C)C(=O)N[C@@H](CC(=O)O)C(=O)N[C@@H](CCCCN)C(=O)N[C@@H](CCC(N)=O)C(=O)N[C@@H](C)C(=O)N[C@@H](C)C(=O)NC(C)(C)C(=O)N[C@@H](CCC(=O)O)C(=O)N[C@@H](Cc1ccccc1)C(=O)N[C@H](C(=O)N[C@@H](CC(N)=O)C(=O)N[C@@H](Cc1c[nH]c2ccccc12)C(=O)N[C@@H](CC(C)C)C(=O)N[C@@H](CC(C)C)C(=O)N[C@@H](C)C(=O)NCC(=O)NCC(=O)N1CCC[C@H]1C(=O)N[C@@H](CO)C(=O)N[C@@H](CO)C(=O)NCC(=O)N[C@@H](C)C(=O)N1CCC[C@H]1C(=O)N1CCC[C@H]1C(=O)N1CCC[C@H]1C(=O)N[C@@H](CO)C(N)=O)C(C)C)[C@@H](C)CC)C(=O)O)C(=O)O [compound 81] (H-Y[Aib]QGTFTSDK([γGlu-γGlu-Palmitoyl])SIYLDKQAA[Aib]EFVNWLLAGGPSSGAPPPS-NH2; N-terminus assumed)								EC50 (glucagon receptor; EC50 (nM) at Glucagon Receptor, Table 6, Example 12): 0.073 nM; EC50 (GLP-1 receptor; EC50 (nM) at GLP-1 Receptor, Table 6, Example 12): 0.008 nM; EC50 (GIP receptor; EC50 (nM) at GIP Receptor, Table 6, Example 12): 0.005 nM
H-H[Aib]QGTFTSDYSKYLDERAAQDFVQWLLDGGPSSGAPPPSK([PEG4-γGlu-Palmitoyl])G-NH2 [SEQ ID NO: 158]	0.003	0.005						EC50 (glucagon receptor; Glucagon Receptor EC50, Table 11, Example 18): 0.004 nM
